From patent publication US20190062305A1, “PYRIDYL OR PYRAZINYL COMPOUNDS CARRYING A METHYL-BOUND ALPHA-AMINO ACID AMIDE GROUP” (ABBVIE DEUTSCHLAND GMBH & CO. KG, priority 2015, published 2019)
Structures can show the parent of a compound that is named as a salt. Where two headings read alike, the source gives them in different places.

Tests used:
5-HT2C receptor = biological target: T1, 5-HT2C receptor (Homo sapiens, UniProt P28335); assay: Human 5-HT2C functional assay (beta-arrestin2 recruitment, U2OS_HTR2C_β-Arrestin cells); format: cell-based; details: for EC50: beta-arrestin2 recruitment, U2OS_HTR2C_β-Arrestin cells, 1.5 h incubation, read-out: EC50 5-HT2C (potency in functional assay); for Emax: relative efficacy vs response to 10 μM 5-HT or maximal 5-HT effect (100%)
T1 construct: host or cells: U2OS
T1 sequence (P28335 33-458): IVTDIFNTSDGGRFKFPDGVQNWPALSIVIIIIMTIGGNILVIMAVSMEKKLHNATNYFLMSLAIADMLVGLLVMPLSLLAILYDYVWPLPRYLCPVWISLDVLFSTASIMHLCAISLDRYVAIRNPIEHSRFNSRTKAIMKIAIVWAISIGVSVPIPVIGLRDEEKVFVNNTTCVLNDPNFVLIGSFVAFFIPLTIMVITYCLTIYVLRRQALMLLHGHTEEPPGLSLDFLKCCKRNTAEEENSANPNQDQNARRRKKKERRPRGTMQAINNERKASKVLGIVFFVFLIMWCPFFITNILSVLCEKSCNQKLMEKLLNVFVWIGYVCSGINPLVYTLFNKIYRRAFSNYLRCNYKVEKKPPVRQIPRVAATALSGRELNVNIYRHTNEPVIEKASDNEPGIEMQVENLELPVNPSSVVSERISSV
T1 sequence (P32121 whole entry partner): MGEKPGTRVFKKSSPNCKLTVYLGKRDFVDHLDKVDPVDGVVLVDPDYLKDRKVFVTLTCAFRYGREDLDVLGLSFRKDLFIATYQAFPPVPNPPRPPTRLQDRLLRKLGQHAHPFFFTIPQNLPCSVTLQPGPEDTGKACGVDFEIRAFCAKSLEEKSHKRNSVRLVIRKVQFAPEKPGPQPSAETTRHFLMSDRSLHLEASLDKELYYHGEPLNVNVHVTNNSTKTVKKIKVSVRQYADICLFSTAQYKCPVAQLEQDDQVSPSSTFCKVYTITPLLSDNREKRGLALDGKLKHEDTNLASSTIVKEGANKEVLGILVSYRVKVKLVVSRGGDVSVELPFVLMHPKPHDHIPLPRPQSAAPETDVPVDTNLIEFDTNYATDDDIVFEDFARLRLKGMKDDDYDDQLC
In short: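 U2OS cells expressing HTR2C with β-galactosidase complementation, switched to 1% serum medium 24 h post-plating, were treated next day with compound for 1.5 h; chemiluminescence read. Response expressed as % of 10 µM 5-HT or maximal 5-HT effect; EC50 from 4-parameter variable-slope fit.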

[1] = Metabolic stability in human liver microsomes, unbound intrinsic clearance (Cl int/fu mic); format: in vitro ADME; details: pH 7.4, human liver microsomes 0.25 mg/mL, 0.5 μM compound, NADPH, read-out: Cl int, mic unb. (h) [l/h/kg] (unbound intrinsic clearance, human)
In short: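 Compound (0.5 µM) was incubated with human liver microsomes (0.25 mg/mL) in pH 7.4 phosphate buffer at 37 °C with 1.0 mM NADPH, sampling from 0–30 min. Depletion was followed by LC-MS/MS, and CLint was derived from first-order t1/2 per mg protein. Microsomal unbound fraction came from 4 h equilibrium dialysis at 37 °C, giving CLint/fu mic.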

SMILES | EC50 (5-HT2C receptor) | Emax (5-HT2C receptor) | CLint scaled at 0.5 μM ([1]; human, liver microsomes) | CLint scaled at 0.5 μM [1]
COc1nc(NC2CCC(F)(F)CC2)c(F)cc1CN(C)C(=O)[C@@H]1CCCN1 [Example 166, (2S)—N-[[6-[(4,4-Difluorocyclohexyl)amino]-5-fluoro-2-methoxy-3-pyridyl]methyl]-N-methyl-pyrrolidine-2-carboxamide; 2,2,2-trifluoroacetic Acid] | 20 to 200 nM | 50 to 70% | < 5 L/h/kg | –
COc1nc(C2=CCC(OC)CC2)c(F)cc1CNC(=O)[C@@H]1CCCN1 (stereo partly drawn) [Example 167, (2S)—N-[[5-Fluoro-2-methoxy-6-(4-methoxycyclohexen-1-yl)-3-pyridyl]methyl]-pyrrolidine-2-carboxamide] | 200 to 1000 nM | > 70% | < 5 L/h/kg | –
COCCCc1nc(OC)c(CNC(=O)[C@@H]2CCCN2)cc1F [Example 168, (2S)—N-[[5-Fluoro-2-methoxy-6-(3-methoxypropyl)-3-pyridyl]methyl]pyrrolidine-2-carboxamide] | 200 to 1000 nM | > 70% | < 5 L/h/kg | –
COc1nc(NCC2CCC(F)(F)CC2)c(F)cc1CNC(=O)[C@@H]1CCCN1 [Example 169, (2S)—N-[[6-[(4,4-Difluorocyclohexyl)methylamino]-5-fluoro-2-methoxy-3-pyridyl]methyl]pyrrolidine-2-carboxamide; 2,2,2-trifluoroacetic Acid] | < 20 nM | > 70% | < 5 L/h/kg | –
COc1nc(NCc2ccccc2)c(F)cc1CNC(=O)[C@@H]1CCCN1 [Example 170, (2S)—N-[[6-(Benzylamino)-5-fluoro-2-methoxy-3-pyridyl]methyl]pyrrolidine-2-carboxamide; 2,2,2-trifluoroacetic Acid] | 20 to 200 nM | > 70% | < 5 L/h/kg | –
CCCN(Cc1ccccc1)c1nc(OC)c(CNC(=O)[C@@H]2CCCN2)cc1F [Example 171, (2S)—N-[[6-[Benzyl(propyl)amino]-5-fluoro-2-methoxy-3-pyridyl]methyl]-pyrrolidine-2-carboxamide Hydrochloride] | 200 to 1000 nM | > 70% | 5 to 50 L/h/kg | –
COc1nc(C2CCC(OC)CC2)c(F)cc1CNC(=O)[C@@H]1CCCN1 (stereo partly drawn) [Example 172, (2S)—N-[[5-Fluoro-2-methoxy-6-(4-methoxycyclohexyl)-3-pyridyl]methyl]-pyrrolidine-2-carboxamide] | 20 to 200 nM | > 70% | < 5 L/h/kg | –
COc1nc(N2CCOC(c3ccccc3)C2)c(F)cc1CNC(=O)[C@@H]1CCCN1 (stereo partly drawn) [Example 173, (2S)—N-[[5-Fluoro-2-methoxy-6-(2-phenylmorpholin-4-yl)-3-pyridyl]methyl]-pyrrolidine-2-carboxamide; 2,2,2-trifluoroacetic Acid] | 200 to 1000 nM | 50 to 70% | 5 to 50 L/h/kg | –
COc1nc(N2CC(C)OC(C)C2)c(F)cc1CNC(=O)[C@@H]1CCCN1 (stereo partly drawn) [Example 174, (2S)—N-[[6-(2,6-Dimethylmorpholin-4-yl)-5-fluoro-2-methoxy-3-pyridyl]methyl]-pyrrolidine-2-carboxamide; 2,2,2-trifluoroacetic Acid] | 200 to 1000 nM | 30 to 50% | < 5 L/h/kg | –
COc1nc(N2CC(Oc3ccccc3)C2)c(F)cc1CNC(=O)[C@@H]1CCCN1 [Example 175, (2S)—N-[[5-Fluoro-2-methoxy-6-(3-phenoxyazetidin-1-yl)-3-pyridyl]methyl]-pyrrolidine-2-carboxamide; 2,2,2-trifluoroacetic Acid] | 20 to 200 nM | 50 to 70% | 5 to 50 L/h/kg | –
COc1nc(N2CC(C)(Oc3ccccc3)C2)c(F)cc1CNC(=O)[C@@H]1CCCN1 [Example 176, (2S)—N-[[5-Fluoro-2-methoxy-6-(3-methyl-3-phenoxy-azetidin-1-yl)-3-pyridyl]methyl]pyrrolidine-2-carboxamide; 2,2,2-trifluoroacetic Acid] | < 20 nM | > 70% | 5 to 50 L/h/kg | –
COc1nc(NCc2ccc(F)cc2)c(F)cc1CNC(=O)[C@@H]1CCCN1 [Example 177, (2S)—N-[[5-Fluoro-6-[(4-fluorophenyl)methylamino]-2-methoxy-3-pyridyl]methyl]-pyrrolidine-2-carboxamide; 2,2,2-trifluoroacetic Acid] | 20 to 200 nM | > 70% | < 5 L/h/kg | –
COc1nc(Nc2ccc(F)cc2)c(F)cc1CNC(=O)[C@@H]1CCCN1 [Example 178, (2S)—N-[[5-Fluoro-6-(4-fluoroanilino)-2-methoxy-3-pyridyl]methyl]pyrrolidine-2-carboxamide; 2,2,2-trifluoroacetic Acid] | 200 to 1000 nM | – | < 5 L/h/kg | –
COc1nc(N(C)Cc2ccccc2)c(F)cc1CNC(=O)[C@@H]1CCCN1 [Example 179, (2S)—N-[[6-[N-Benzyl-N-methyl-amino]-5-fluoro-2-methoxy-3-pyridyl]methyl]-pyrrolidine-2-carboxamide; 2,2,2-trifluoroacetic Acid] | 200 to 1000 nM | 50 to 70% | 5 to 50 L/h/kg | –
COc1nc(N2CCC(C3CCC(C(F)(F)F)CC3)CC2)c(F)cc1CNC(=O)[C@@H]1CCCN1 (stereo partly drawn) [Example 180, (2S)—N-[[5-Fluoro-2-methoxy-6-[4-[4-(trifluoromethyl)cyclohexyl]-1-piperidyl]-3-pyridyl]methyl]pyrrolidine-2-carboxamide; 2,2,2-trifluoroacetic Acid] | 200 to 1000 nM | > 70% | 50 to 500 L/h/kg | –
COc1nc(N2CC(F)(F)C(F)(F)C(F)(F)C2)c(F)cc1CNC(=O)[C@@H]1CCCN1 [Example 182, (2S)—N-[[5-Fluoro-6-(3,3,4,4,5,5-hexafluoro-1-piperidyl)-2-methoxy-3-pyridyl]-methyl]pyrrolidine-2-carboxamide Hydrochloride] | < 20 nM | > 70% | – | 5 to 50 L/h/kg
COc1nc(N2CC3C(C2)C3(F)F)c(F)cc1CNC(=O)[C@@H]1CCCN1 (stereo partly drawn) [Example 183, (2S)—N-[[6-(6,6-Difluoro-3-azabicyclo[3.1.0]hexan-3-yl)-5-fluoro-2-methoxy-3-pyridyl]methyl]pyrrolidine-2-carboxamide] | 20 to 200 nM | > 70% | 5 to 50 L/h/kg | –
COc1nc(N2CCC3C(C2)C3(F)F)c(F)cc1CNC(=O)[C@@H]1CCCN1 (stereo partly drawn) [Example 184, (2S)—N-[[6-(7,7-Difluoro-4-azabicyclo[4.1.0]heptan-4-yl)-5-fluoro-2-methoxy-3-pyridyl]methyl]pyrrolidine-2-carboxamide; 2,2,2-trifluoroacetic Acid] | 20 to 200 nM | > 70% | 5 to 50 L/h/kg | –
COc1nc(NCCCc2ccccc2)c(F)cc1CNC(=O)[C@@H]1CCCN1 [Example 185, (2S)—N-[[5-Fluoro-2-methoxy-6-(3-phenylpropylamino)-3-pyridyl]methyl]-pyrrolidine-2-carboxamide; 2,2,2-trifluoroacetic acid] | 20 to 200 nM | > 70% | 5 to 50 L/h/kg | –
COc1nc(NC2CCC2C(F)(F)F)c(F)cc1CNC(=O)[C@@H]1CCCN1 (stereo partly drawn) [Example 186, (2S)—N-[[5-Fluoro-2-methoxy-6-[[2-(trifluoromethyl)cyclobutyl]amino]-3-pyridyl]-methyl]pyrrolidine-2-carboxamide] | 20 to 200 nM | > 70% | < 5 L/h/kg | –
COc1nc(N2CCC(CC(F)(F)F)C2)c(F)cc1CNC(=O)[C@@H]1CCCN1 (stereo partly drawn) [Example 187, (2S)—N-[[5-Fluoro-2-methoxy-6-[3-(2,2,2-trifluoroethyl)pyrrolidin-1-yl]-3-pyridyl]methyl]pyrrolidine-2-carboxamide; 2,2,2-trifluoroacetic Acid] | 20 to 200 nM | > 70% | 5 to 50 L/h/kg | –
COc1nc(N2CCCC3(C2)CC3(F)F)c(F)cc1CNC(=O)[C@@H]1CCCN1 (stereo partly drawn) [Example 188, (2S)—N-[[6-(2,2-Difluoro-7-azaspiro[2.5]octan-7-yl)-5-fluoro-2-methoxy-3-pyridyl]methyl]pyrrolidine-2-carboxamide; 2,2,2-trifluoroacetic Acid] | 20 to 200 nM | > 70% | – | 5 to 50 L/h/kg
COc1nc(CC2CCOCC2)c(F)cc1CNC(=O)[C@@H]1CCCN1 [Example 189, (2S)—N-[[5-Fluoro-2-methoxy-6-(tetrahydropyran-4-ylmethyl)-3-pyridyl]methyl]-pyrrolidine-2-carboxamide; 2,2,2-trifluoroacetic Acid] | 200 to 1000 nM | 50 to 70% | < 5 L/h/kg | –
COc1nc(N2CCC(F)(F)C(C(F)F)C2)c(F)cc1CNC(=O)[C@@H]1CCCN1 (stereo partly drawn) [Example 190, (2S)—N-[[6-[3-(Difluoromethyl)-4,4-difluoro-1-piperidyl]-5-fluoro-2-methoxy-3-pyridyl]methyl]pyrrolidine-2-carboxamide Hydrochloride] | < 20 nM | > 70% | < 5 L/h/kg | –
COc1nc(C(F)(F)Cc2ccccc2)c(F)cc1CN(C)C(=O)[C@@H]1CCCN1 [Example 191, (2S)—N-[[6-(1,1-Difluoro-2-phenyl-ethyl)-5-fluoro-2-methoxy-3-pyridyl]methyl]-N-methyl-pyrrolidine-2-carboxamide Hydrochloride] | 200 to 1000 nM | 30 to 50% | 5 to 50 L/h/kg | –
